ChEMBL document CHEMBL5233285, “Recent Update on the Development of PCSK9 Inhibitors for Hypercholesterolemia Treatment” (J Med Chem, 2022)

What was measured:
[1] = target: T1, Proprotein convertase subtilisin/kexin type 9 (Homo sapiens, UniProt Q8NBP7); test: Binding affinity to human PCSK9
PCSK9/LDLR [2] = target: T2, PCSK9/LDLR (Homo sapiens, UniProt Q8NBP7); test: Inhibition of PCSK9-LDLR (unknown origin) protein-protein interaction; assay type: protein assay
[3] = target: Proprotein convertase subtilisin/kexin type 9 (Mus musculus, UniProt Q80W65); test: Binding affinity to mouse PCSK9
Sequence of Proprotein convertase subtilisin/kexin type 9 (Mus musculus, UniProt Q80W65) (Q80W65 35-155 limits assumed): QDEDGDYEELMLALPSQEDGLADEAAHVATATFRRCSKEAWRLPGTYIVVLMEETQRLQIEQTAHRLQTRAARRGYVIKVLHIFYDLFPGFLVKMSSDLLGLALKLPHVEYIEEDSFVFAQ
Sequence of Proprotein convertase subtilisin/kexin type 9 (Mus musculus, UniProt Q80W65) (Q80W65 156-694 limits assumed): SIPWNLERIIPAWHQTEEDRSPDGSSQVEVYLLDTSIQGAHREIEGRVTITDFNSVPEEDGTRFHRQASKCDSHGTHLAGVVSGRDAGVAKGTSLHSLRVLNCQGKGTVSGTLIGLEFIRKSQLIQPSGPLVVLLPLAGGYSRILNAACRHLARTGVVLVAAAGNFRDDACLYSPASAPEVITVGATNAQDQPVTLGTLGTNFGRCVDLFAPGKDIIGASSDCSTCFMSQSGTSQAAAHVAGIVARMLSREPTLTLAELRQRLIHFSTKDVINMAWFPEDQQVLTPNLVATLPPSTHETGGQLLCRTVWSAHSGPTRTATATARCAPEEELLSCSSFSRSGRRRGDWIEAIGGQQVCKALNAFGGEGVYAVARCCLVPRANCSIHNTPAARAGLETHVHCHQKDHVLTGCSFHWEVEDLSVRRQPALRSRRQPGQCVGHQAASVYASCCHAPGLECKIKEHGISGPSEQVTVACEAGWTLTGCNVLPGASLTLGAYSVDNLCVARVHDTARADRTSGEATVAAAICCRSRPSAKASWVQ

PCSK9/LDLR [4] = target: T2, PCSK9/LDLR; test: Inhibition of PCSK9-LDLR protein-protein interaction in human HepG2 cells assessed as increase in LDL uptake; assay type: cell-based
Mus musculus [5] = test: Hypocholesterolemic activity in C57BL/6 mouse assessed as increase in LDLR level at 30 mg/kg; assay type: functional
Mus musculus [6] = test: Hypocholesterolemic activity in C57BL/6 mouse assessed as reduction in TC level at 30 mg/kg; assay type: functional; set-up: scale not given: the % may be the effect or the level left
[7] = target: T1, Proprotein convertase subtilisin/kexin type 9; test: Inhibition of PCSK9 (unknown origin)
[8] = target: T1, Proprotein convertase subtilisin/kexin type 9; test: Inhibition of PCSK9 in human HepG2 cells assessed as restoration of LDLR; assay type: cell-based
[9] = target: T1, Proprotein convertase subtilisin/kexin type 9; test: Inhibition of PCSK9 in human HepG2 cells assessed as increase in LDL uptake; assay type: cell-based
[10] = target: T1, Proprotein convertase subtilisin/kexin type 9; test: Inhibition of PCSK9 in human HepG2 cells assessed as increase in LDL uptake at 10 uM; assay type: cell-based

T2 sequence (Q8NBP7 31-152 limits assumed): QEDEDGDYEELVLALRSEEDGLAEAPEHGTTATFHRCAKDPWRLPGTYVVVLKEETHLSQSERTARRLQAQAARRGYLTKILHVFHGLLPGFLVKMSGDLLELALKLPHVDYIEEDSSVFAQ
T2 sequence (Q8NBP7 153-692 limits assumed): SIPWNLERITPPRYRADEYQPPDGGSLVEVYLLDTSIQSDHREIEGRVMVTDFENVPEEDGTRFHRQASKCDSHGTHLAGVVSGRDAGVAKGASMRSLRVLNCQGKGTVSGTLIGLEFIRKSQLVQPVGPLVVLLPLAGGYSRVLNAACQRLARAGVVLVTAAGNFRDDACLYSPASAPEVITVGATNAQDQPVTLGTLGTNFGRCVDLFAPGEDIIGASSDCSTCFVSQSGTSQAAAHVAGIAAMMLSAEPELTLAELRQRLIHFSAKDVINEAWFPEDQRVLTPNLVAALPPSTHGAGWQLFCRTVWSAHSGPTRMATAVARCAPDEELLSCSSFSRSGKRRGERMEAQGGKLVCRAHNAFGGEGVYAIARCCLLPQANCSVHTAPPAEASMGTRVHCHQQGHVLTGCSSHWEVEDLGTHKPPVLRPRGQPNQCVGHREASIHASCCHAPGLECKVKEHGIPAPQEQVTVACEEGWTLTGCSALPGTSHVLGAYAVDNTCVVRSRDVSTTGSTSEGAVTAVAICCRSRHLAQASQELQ
T2 sequence (P01130 22-860 partner limits assumed): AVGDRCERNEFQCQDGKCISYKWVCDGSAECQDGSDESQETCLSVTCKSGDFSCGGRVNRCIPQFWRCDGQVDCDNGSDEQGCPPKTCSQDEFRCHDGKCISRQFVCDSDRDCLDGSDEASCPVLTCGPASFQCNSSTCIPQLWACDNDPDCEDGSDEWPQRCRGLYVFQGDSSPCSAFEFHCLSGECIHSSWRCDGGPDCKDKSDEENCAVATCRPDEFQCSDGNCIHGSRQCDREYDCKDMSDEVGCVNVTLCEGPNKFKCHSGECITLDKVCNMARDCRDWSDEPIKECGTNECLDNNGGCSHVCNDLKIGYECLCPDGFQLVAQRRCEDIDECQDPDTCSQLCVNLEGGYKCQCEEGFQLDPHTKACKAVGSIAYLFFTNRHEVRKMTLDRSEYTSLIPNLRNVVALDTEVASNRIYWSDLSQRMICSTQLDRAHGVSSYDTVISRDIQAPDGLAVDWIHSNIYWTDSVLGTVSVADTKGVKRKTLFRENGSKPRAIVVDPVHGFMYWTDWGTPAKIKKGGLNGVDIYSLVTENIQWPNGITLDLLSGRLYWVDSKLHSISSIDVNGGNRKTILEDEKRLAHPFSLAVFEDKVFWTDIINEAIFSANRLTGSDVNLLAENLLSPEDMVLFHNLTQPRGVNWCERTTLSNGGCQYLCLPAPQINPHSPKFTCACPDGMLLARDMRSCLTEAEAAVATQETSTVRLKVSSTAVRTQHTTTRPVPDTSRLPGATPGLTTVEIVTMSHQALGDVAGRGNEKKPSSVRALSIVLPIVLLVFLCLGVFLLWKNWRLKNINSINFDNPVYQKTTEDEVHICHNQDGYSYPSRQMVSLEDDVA
T1 sequence (Q8NBP7 31-152 limits assumed): as the sequence (Q8NBP7 31-152 limits assumed) above
T1 sequence (Q8NBP7 153-692 limits assumed): as the sequence (Q8NBP7 153-692 limits assumed) above

SMILES | Kd [1] | IC50 (PCSK9/LDLR [2]) | Kd [3] | EC50 (PCSK9/LDLR [4]) | Activity (Mus musculus [5]) | Activity (Mus musculus [6]) | IC50 [7] | EC50 [8] | EC50 [9] | inhibition [10]
CCNC(=O)[C@@H]1CSCC(=O)N[C@@H](Cc2ccccc2)C(=O)N[C@@H](C(C)C)C(=O)N2CCC[C@H]2C(=O)N[C@@H]([C@@H](C)O)C(=O)N[C@@H]([C@@H](C)O)C(=O)N[C@@H](Cc2ccc(-c3ccccc3)cc2)C(=O)N(C)[C@@H](C)C(=O)N[C@@H](Cc2ccc(-c3ccccc3)cc2)C(=O)N(C)[C@@H](C)C(=O)N[C@@H](CCC(=O)O)C(=O)N[C@@H](C)C(=O)N2CCC[C@H]2C(=O)N1 | 6.1 nM | 2 nM | 21 nM | 170 nM | 90% | 43% |  |  |  | 
CC(=O)N[C@H](CSCc1cn(CCCCCC(=O)NCCOCCOCCOCCOCCOCCOCCOCCOCCOCCOCCC(=O)NCCCC[C@H](NC(=O)COCCOCCOCCOCCOCCOCCOCCOCCOCCOCCNC(=O)C(N)CCCCn2cc(CSC[C@@H](NC(C)=O)C(=O)N[C@H](C(=O)N[C@H](C(=O)N[C@@H](Cc3ccccc3)C(=O)N[C@H](C(=O)N[C@@H](CO)C(=O)N[C@@H](Cc3c[nH]c4ccccc34)C(=O)N[C@@H](CCC(=O)O)C(=O)N[C@@H](CCC(=O)O)C(=O)N[C@@H](Cc3ccc(O)cc3)C(=O)N[C@@H](CC(C)C)C(=O)N[C@@H](CC(=O)O)C(=O)N[C@@H](Cc3c[nH]c4ccccc34)C(=O)N[C@H](C(=O)N[C@@H](CCCNC(=N)N)C(=O)N[C@@H](CCCNC(=N)N)C(=O)NCC(=O)O)C(C)C)[C@@H](C)O)C(C)C)[C@@H](C)O)nn2)C(=O)NCC(=O)N[C@@H](CCCNC(=N)N)C(=O)N[C@@H](CCCNC(=N)N)C(=O)N[C@@H](CCCCN)C(=O)N[C@@H](Cc2c[nH]c3ccccc23)C(N)=O)nn1)C(=O)N[C@H](C(=O)N[C@H](C(=O)N[C@@H](Cc1ccccc1)C(=O)N[C@H](C(=O)N[C@@H](CO)C(=O)N[C@@H](Cc1c[nH]c2ccccc12)C(=O)N[C@@H](CCC(=O)O)C(=O)N[C@@H](CCC(=O)O)C(=O)N[C@@H](Cc1ccc(O)cc1)C(=O)N[C@@H](CC(C)C)C(=O)N[C@@H](CC(=O)O)C(=O)N[C@@H](Cc1c[nH]c2ccccc12)C(=O)N[C@H](C(=O)N[C@@H](CCCNC(=N)N)C(=O)N[C@@H](CCCNC(=N)N)C(=O)NCC(=O)O)C(C)C)[C@@H](C)O)C(C)C)[C@@H](C)O (stereo partly specified) |  |  |  |  |  |  | 230 nM |  |  | 
CC(=O)N[C@H](C(=O)N[C@H](C(=O)N[C@@H](Cc1ccccc1)C(=O)N[C@H](C(=O)N[C@@H](CO)C(=O)N[C@@H](Cc1c[nH]c2ccccc12)C(=O)N[C@@H](CCC(=O)O)C(=O)N[C@@H](CCC(=O)O)C(=O)N[C@@H](Cc1ccc(O)cc1)C(=O)N[C@@H](CC(C)C)C(=O)N[C@@H](CC(=O)O)C(=O)N[C@@H](Cc1c[nH]c2ccccc12)C(=O)N[C@H](C(N)=O)C(C)C)[C@@H](C)O)C(C)C)[C@@H](C)O |  | 800 nM |  |  |  |  |  | 5000 nM | 6000 nM | 56.5%
